Data on 13 compounds can be found in ChEMBL document CHEMBL1134745, “Synthesis and evaluation of novel pseudomycin side-chain analogues. Part 3” (2001).

For assay [1], the species on record is Mus musculus. The assay can be described thus: Ratio of the drug concentration required to achieve 50% survival of fungal infection compared with untreated animals to that of ED50 of PSB. In kind it is functional.
The next assay deals with Cryptococcus neoformans. The assay can be described thus: Lowest concentration required to inhibit 90-100% in vitro growth of Cryptococcus neoformans.
A further assay concerns Aspergillus fumigatus. The assay can be described thus: Lowest concentration required to inhibit 90-100% in vitro growth of Aspergillus fumigatus. In kind it is functional.
The next assay has as its system Candida albicans. As to the kind of experiment: Lowest concentration required to inhibit 90-100% in vitro growth of Candida albicans. Type of assay: functional.
Assay [2] concerns Mus musculus. The assay can be described thus: Tail vein toxicity at 20 mg/kg dose was determined in mice;Positive. In kind it is functional, organism-based. Set-up: dose 20 mg/kg.
For assay [3], the species on record is Mus musculus. The assay can be described thus: Ratio of the drug concentration required to achieve 50% survival of fungal infection compared with untreated animals to that of ED50 of PSB;value in range of 2-7. In kind it is functional.

Converted amounts (≈) assume the structure as drawn. Positions of bridges follow the written chain, without caps; N, C: chain ends. Non-standard residues stand in square brackets, D forms with d. Residues, ends and D or L forms follow the SMILES beside them. *: point of attachment. Tetradecanoyl(3R-OH) = CCCCCCCCCCC[C@@H](O)CC(=O)*; Asp(3S-OH) = N[C@H](C(=O)O)[C@H](O)C(=O)O; Thr(4-Cl) = N[C@H](C(=O)O)[C@H](O)CCl; aThr = C[C@H](O)[C@H](N)C(=O)O; dDab = NCC[C@@H](N)C(=O)O; Dab = NCC[C@H](N)C(=O)O; Dhb = C/C=C(\N)C(=O)O

Turning to `C/C=C1\NC(=O)[C@H]([C@@H](C)O)NC(=O)[C@H](CCN)NC(=O)[C@H](CCCCN)NC(=O)[C@H](CC(=O)OC)NC(=O)[C@@H](CCN)NC(=O)[C@@H](NC(=O)C[C@@H](O)CCCCCCCCCCC)COC(=O)[C@H]([C@H](O)CCl)NC(=O)[C@H]([C@H](O)C(=O)OC)NC1=O`, the Ratio in the assay filed under Mus musculus [1] is reported as 7.8. In addition, the MIC (usually the least concentration at which growth counts as inhibited) is 0.01 µg/mL (≈ 0.00809 µM) with Cryptococcus neoformans, 20 µg/mL (≈ 16.2 µM) against Aspergillus fumigatus and 2.5 µg/mL (≈ 2.02 µM) in the assay with Candida albicans.
On to `C/C=C1\NC(=O)[C@H]([C@@H](C)O)NC(=O)[C@H](CCNC(=O)OCc2oc(=O)oc2C)NC(=O)[C@H](CCCCNC(=O)OCc2oc(=O)oc2C)NC(=O)[C@H](CC(=O)O)NC(=O)[C@@H](CCNC(=O)OCc2oc(=O)oc2C)NC(=O)[C@@H](NC(=O)C[C@@H](O)CCCCCCCCCCC)COC(=O)[C@H]([C@H](O)CCl)NC(=O)[C@H]([C@H](O)C(=O)O)NC1=O`, for which, in the assay listed under Mus musculus [1], the Ratio came to 7.8. Also, the MIC against Cryptococcus neoformans, against Aspergillus fumigatus and in the assay with Candida albicans was above 20 µg/mL in each case.
With `C/C=C1\NC(=O)[C@H]([C@@H](C)O)NC(=O)[C@H](CCN)NC(=O)[C@H](CCCCN)NC(=O)[C@H](CC(=O)NC2CC2)NC(=O)[C@@H](CCN)NC(=O)[C@@H](NC(=O)C[C@@H](O)CCCCCCCCCCC)COC(=O)[C@H]([C@H](O)CCl)NC(=O)[C@H]([C@H](O)C(=O)O)NC1=O`, the Ratio in the assay filed under Mus musculus [1] is recorded as below 5. The MIC against Cryptococcus neoformans was below 0.01 µg/mL; against Aspergillus fumigatus, above 20 µg/mL; in the assay with Candida albicans, 0.156 µg/mL (≈ 0.125 µM).
Take `C/C=C1\NC(=O)[C@H]([C@H](C)O)NC(=O)[C@H](CCN)NC(=O)[C@H](CCCCN)NC(=O)[C@H](CC(=O)O)NC(=O)[C@@H](CCN)NC(=O)[C@@H](NC(=O)C[C@H](O)CCCCCCCCCCCCCCC)COC(=O)[C@H]([C@H](O)CCl)NC(=O)[C@H]([C@H](O)C(=O)O)NC1=O`: the Ratio in the assay listed under Mus musculus [1] is above 20. In addition, the MIC was found to be 0.01 µg/mL (≈ 0.00791 µM) against Cryptococcus neoformans, 5 µg/mL (≈ 3.96 µM) in the assay on Aspergillus fumigatus and 0.625 µg/mL (≈ 0.495 µM) with Candida albicans. In addition, the Toxicity result in the assay on Mus musculus [2] is “Positive”.
`C/C=C1/NC(=O)[C@H]([C@@H](C)O)NC(=O)[C@H](CCNC(=O)OCOC(=O)C(C)(C)C)NC(=O)[C@H](CCCCNC(=O)OCOC(=O)C(C)(C)C)NC(=O)[C@H](CC(=O)O)NC(=O)[C@@H](CCNC(=O)OCOC(=O)C(C)(C)C)NC(=O)[C@@H](NC(=O)C[C@@H](O)CCCCCCCCCCCCCCC)COC(=O)[C@H]([C@H](O)CCl)NC(=O)[C@H]([C@H](O)C(=O)O)NC1=O`: the Ratio in the assay listed under Mus musculus [1] is on record as above 20. Further, the MIC with Cryptococcus neoformans, with Aspergillus fumigatus and in the assay with Candida albicans was above 20 µg/mL each time.
Take `C/C=C1\NC(=O)[C@H]([C@H](C)O)NC(=O)[C@H](CCN)NC(=O)[C@H](CCCCN)NC(=O)[C@H](CC(=O)O)NC(=O)[C@@H](CCN)NC(=O)[C@@H](NC(=O)C[C@H](O)CCCCCCCCCCC)COC(=O)[C@H]([C@H](O)CCl)NC(=O)[C@H]([C@H](O)C(=O)O)NC1=O` [PSEUDOMYCIN B] ({Tetradecanoyl(3R-OH)}-S[dDab]DK[Dab][aThr][Dhb][Asp(3S-OH)][Thr(4-Cl)]; ester 1-C): the MIC with Cryptococcus neoformans amounted to 0.039 µg/mL (≈ 0.0323 µM); against Aspergillus fumigatus, 20 µg/mL (≈ 16.6 µM); in the assay with Candida albicans, 0.625 µg/mL (≈ 0.517 µM). For the same compound, the Toxicity entry in the assay with Mus musculus [2] was “Positive”. Further, the Ratio in the assay filed under Mus musculus [3] came out at 7.
As for `C/C=C1\NC(=O)[C@H]([C@@H](C)O)NC(=O)[C@H](CCN)NC(=O)[C@H](CCCCN)NC(=O)[C@H](CC(=O)O)NC(=O)[C@@H](CCN)NC(=O)[C@@H](NC(=O)C[C@H](O)CCCCCCCCCCCCCCC)COC(=O)[C@H]([C@H](O)CCl)NC(=O)[C@H]([C@H](O)C(=O)O)NC1=O`, the Ratio in the assay filed under Mus musculus [1] was above 20. In addition, the MIC in the assay with Cryptococcus neoformans stood at 0.02 µg/mL (≈ 0.0158 µM); in the assay with Aspergillus fumigatus it was 5 µg/mL (≈ 3.96 µM); with Candida albicans, 1.25 µg/mL (≈ 0.989 µM).
Regarding `C/C=C1\NC(=O)[C@H]([C@@H](C)O)NC(=O)[C@H](CCNC(=O)OCOC(=O)C(C)(C)C)NC(=O)[C@H](CCCCNC(=O)OCOC(=O)C(C)(C)C)NC(=O)[C@H](CC(=O)O)NC(=O)[C@@H](CCNC(=O)OCOC(=O)C(C)(C)C)NC(=O)[C@@H](NC(=O)C[C@@H](O)CCCCCCCCCCC)COC(=O)[C@H]([C@H](O)CCl)NC(=O)[C@H]([C@H](O)C(=O)O)NC1=O`, the Ratio in the assay listed under Mus musculus [1] was 6.4. Besides, the MIC with Cryptococcus neoformans, with Aspergillus fumigatus and against Candida albicans was above 20 µg/mL throughout.
Take `C/C=C1\NC(=O)[C@H]([C@@H](C)O)NC(=O)[C@H](CCN)NC(=O)[C@H](CCCCN)NC(=O)[C@H](CC(=O)NCCN(C)C)NC(=O)[C@@H](CCN)NC(=O)[C@@H](NC(=O)C[C@@H](O)CCCCCCCCCCC)COC(=O)[C@H]([C@H](O)CCl)NC(=O)[C@H]([C@H](O)C(=O)O)NC1=O`: the Ratio in the assay filed under Mus musculus [1] is on record as below 5. For the same compound, the MIC was below 0.01 µg/mL in the assay with Cryptococcus neoformans, 5 µg/mL (≈ 3.91 µM) with Aspergillus fumigatus and 0.156 µg/mL (≈ 0.122 µM) in the assay with Candida albicans.
Regarding `C/C=C1\NC(=O)[C@H]([C@@H](C)O)NC(=O)[C@H](CCNC(=O)OCOC(=O)C(C)C)NC(=O)[C@H](CCCCNC(=O)OCOC(=O)C(C)C)NC(=O)[C@H](CC(=O)O)NC(=O)[C@@H](CCNC(=O)OCOC(=O)C(C)C)NC(=O)[C@@H](NC(=O)C[C@@H](O)CCCCCCCCCCCCCCC)COC(=O)[C@H]([C@H](O)CCl)NC(=O)[C@H]([C@H](O)C(=O)O)NC1=O`, the Ratio in the assay listed under Mus musculus [1] is reported as above 14. Besides, the MIC in the assay with Cryptococcus neoformans, with Aspergillus fumigatus and against Candida albicans was above 20 µg/mL in each case.
As for `C/C=C1\NC(=O)[C@H]([C@@H](C)O)NC(=O)[C@H](CCN)NC(=O)[C@H](CCCCN)NC(=O)[C@H](CC(=O)OC)NC(=O)[C@@H](CCN)NC(=O)[C@@H](NC(=O)C[C@@H](O)CCCCCCCCCCCCCCC)COC(=O)[C@H]([C@H](O)CCl)NC(=O)[C@H]([C@H](O)C(=O)OC)NC1=O`, the Ratio in the assay listed under Mus musculus [1] is reported as above 20. Besides, the MIC amounted to 1.25 µg/mL (≈ 0.968 µM) against Cryptococcus neoformans, 20 µg/mL (≈ 15.5 µM) in the assay on Aspergillus fumigatus and 5 µg/mL (≈ 3.87 µM) in the assay on Candida albicans.
Regarding `C/C=C1\NC(=O)[C@H]([C@@H](C)O)NC(=O)[C@H](CCNC(=O)OCOC(=O)C(C)C)NC(=O)[C@H](CCCCNC(=O)OCOC(=O)C(C)C)NC(=O)[C@H](CC(=O)O)NC(=O)[C@@H](CCNC(=O)OCOC(=O)C(C)C)NC(=O)[C@@H](NC(=O)C[C@@H](O)CCCCCCCCCCC)COC(=O)[C@H]([C@H](O)CCl)NC(=O)[C@H]([C@H](O)C(=O)O)NC1=O`, the Ratio in the assay listed under Mus musculus [1] was 11.4. For the same compound, the MIC with Cryptococcus neoformans, with Aspergillus fumigatus and in the assay with Candida albicans was above 20 µg/mL throughout.
In the case of `C/C=C1\NC(=O)[C@H]([C@@H](C)O)NC(=O)[C@H](CCNC(=O)OCc2oc(=O)oc2C)NC(=O)[C@H](CCCCNC(=O)OCc2oc(=O)oc2C)NC(=O)[C@H](CC(=O)O)NC(=O)[C@@H](CCNC(=O)OCc2oc(=O)oc2C)NC(=O)[C@@H](NC(=O)C[C@@H](O)CCCCCCCCCCCCCCC)COC(=O)[C@H]([C@H](O)CCl)NC(=O)[C@H]([C@H](O)C(=O)O)NC1=O`, the Ratio in the assay filed under Mus musculus [1] is above 19. The MIC in the assay with Cryptococcus neoformans, against Aspergillus fumigatus and in the assay on Candida albicans was above 20 µg/mL each time.
